# Where a name gives a salt, the structure may show the parent alone.
# Columns and labels:
# [1] = system: human monocyte stimulated cytokine production (TNF-α); test: Monocyte assay (LPS-stimulated TNF-α production); type: cell-based; details: for inhibition at 0.3 µM: read-out: inhibition at 300 nM in the monocyte assay; for IC50: 24 h, 200 ng/mL LPS, TNF-α by ELISA
# In short: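 TNF-α release was measured by ELISA after 24 hrs at 37 C. Cells were stimulated with 200 ng/mL E. coli LPS, with compound added 30 minutes beforehand (0.1% DMSO vehicle). Cells were Ficoll/MACS-isolated CD14+ human monocytes adhered at 1×10^6 cells/mL, and viability was checked by trypan blue.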
# [2] = molecular target: T1, Recombinant human IKKβ (residues 1-737) (Homo sapiens, UniProt O14920); test: IKK2 assay (TR-FRET); type: biochemical; details: ATP 1 μM final, read-out: pIC50 against IKK2 (converted)
# T1 construct: Recombinant human IKKβ (residues 1-737); GST (C); made in house
# T1 sequence (O14920 1-737): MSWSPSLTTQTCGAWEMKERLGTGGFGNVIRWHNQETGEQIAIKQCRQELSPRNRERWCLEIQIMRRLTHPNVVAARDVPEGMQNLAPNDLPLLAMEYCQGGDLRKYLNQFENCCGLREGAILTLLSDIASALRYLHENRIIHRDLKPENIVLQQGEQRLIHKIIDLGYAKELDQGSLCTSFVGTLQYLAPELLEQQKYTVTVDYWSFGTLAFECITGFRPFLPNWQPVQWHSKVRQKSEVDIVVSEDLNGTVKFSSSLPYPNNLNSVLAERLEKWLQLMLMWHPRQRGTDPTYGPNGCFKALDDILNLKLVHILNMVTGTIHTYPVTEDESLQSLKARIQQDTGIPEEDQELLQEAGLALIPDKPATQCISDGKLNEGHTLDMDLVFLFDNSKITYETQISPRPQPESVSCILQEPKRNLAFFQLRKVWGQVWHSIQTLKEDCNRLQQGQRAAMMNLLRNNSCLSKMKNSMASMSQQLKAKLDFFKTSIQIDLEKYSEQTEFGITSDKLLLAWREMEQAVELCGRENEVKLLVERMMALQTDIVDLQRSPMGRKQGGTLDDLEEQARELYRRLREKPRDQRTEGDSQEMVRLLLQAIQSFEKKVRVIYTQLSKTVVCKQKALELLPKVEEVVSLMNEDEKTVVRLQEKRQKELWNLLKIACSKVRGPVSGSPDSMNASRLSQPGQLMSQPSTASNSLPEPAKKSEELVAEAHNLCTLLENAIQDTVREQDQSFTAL
# In short: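 TR-FRET readout (665 nm over 620 nm Eu reference) of GST-IB Ser32/36 phosphorylation after 60 min detection. Reaction: 1 μM ATP, 25 nM substrate, 0.5-5 nM GST-fused IKKβ 1-737 from baculovirus, pH 7.4 HEPES buffer, 1.7% DMSO, 15 min room temperature, EDTA-terminated.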
SMILES,inhibition at 0.3 µM [1] [%],IC50 [2] [µM],IC50 [1] [nM]
"CCSCCN(C)Cc1cc(-c2cc(C(N)=O)c3[nH]cc(C4CCN(S(=O)(=O)CC)CC4)c3c2)cs1 [Example 430, 3-[1-(ethylsulfonyl)-4-piperidinyl]-5-(5-{[[2-(ethylthio)ethyl](methyl)amino]methyl}-3-thienyl)-1H-indole-7-carboxamide]",0 to 60,≤ 10,
"CCS(=O)(=O)N1CCC(c2c[nH]c3c(C(N)=O)cc(-c4csc(CN(C)CCSCCO)c4)cc23)CC1 [Example 431, 3-[1-(ethylsulfonyl)-4-piperidinyl]-5-(5-{[{2-[(2-hydroxyethyl)thio]ethyl}(methyl)amino]methyl}-3-thienyl)-1H-indole-7-carboxamide]",0 to 60,≤ 10,
"CCS(=O)(=O)N1CCC(c2c[nH]c3c(C(N)=O)cc(-c4csc(CN(C)C(CO)CO)c4)cc23)CC1 [Example 432, 3-[1-(ethylsulfonyl)-4-piperidinyl]-5-(5-{[[2-hydroxy-1-(hydroxymethyl)ethyl](methyl)amino]methyl}-3-thienyl)-1H-indole-7-carboxamide]",,≤ 10,≤ 1500
"CCOC(=O)N(C)Cc1cc(-c2cc(C(N)=O)c3[nH]cc(C4CCN(S(=O)(=O)CC)CC4)c3c2)cs1 [Example 433, ethyl[(4-{7-(aminocarbonyl)-3-[1-(ethylsulfonyl)-4-piperidinyl]-1H-indol-5-yl}-2-thienyl)methyl]methylcarbamate]",0 to 60,≤ 10,
"CCOC(=O)CN(C)Cc1cc(-c2cc(C(N)=O)c3[nH]cc(C4CCN(S(=O)(=O)CC)CC4)c3c2)cs1 [Example 434, ethyl N-[(4-[7-(aminocarbonyl)-3-[1-(ethylsulfonyl)-4-piperidinyl]-1H-indol-5-yl]-2-thienyl)methyl]-N-methylglycinate]",,≤ 10,≤ 1500
"CCS(=O)(=O)N1CCC(c2c[nH]c3c(C(N)=O)cc(-c4csc(CN(C)C5CCS(=O)(=O)C5)c4)cc23)CC1 (stereo not drawn) [Example 436, 5-(5-{[(1,1-dioxidotetrahydro-3-thienyl)(methyl)amino]methyl}-3-thienyl)-3-[1-(ethylsulfonyl)-4-piperidinyl]-1H-indole-7-carboxamide trifluoroacetate]",0 to 60,≤ 10,
